Molecules are shown by their SMILES. pIC50: −log10 of the molar value. Active and inactive are the calls of the source. No cut-off for these calls is given here.

This note sets out measurements from ChEMBL document CHEMBL3612007, “Novel inhibitors targeting PPM1D phosphatase potently suppress cancer cell proliferation” (Bioorg Med Chem, 2015).

Experiment [1] deals with MCF7. Put plainly: Inhibition of cell proliferation of human MCF7 cells incubated for 24 hrs. It is filed as functional, cell-based. As to conditions: MCF7, 24 h.
For the next experiment, the target named is T1, Protein phosphatase 1D (Homo sapiens, UniProt O15297).
T1 sequence (O15297 whole entry): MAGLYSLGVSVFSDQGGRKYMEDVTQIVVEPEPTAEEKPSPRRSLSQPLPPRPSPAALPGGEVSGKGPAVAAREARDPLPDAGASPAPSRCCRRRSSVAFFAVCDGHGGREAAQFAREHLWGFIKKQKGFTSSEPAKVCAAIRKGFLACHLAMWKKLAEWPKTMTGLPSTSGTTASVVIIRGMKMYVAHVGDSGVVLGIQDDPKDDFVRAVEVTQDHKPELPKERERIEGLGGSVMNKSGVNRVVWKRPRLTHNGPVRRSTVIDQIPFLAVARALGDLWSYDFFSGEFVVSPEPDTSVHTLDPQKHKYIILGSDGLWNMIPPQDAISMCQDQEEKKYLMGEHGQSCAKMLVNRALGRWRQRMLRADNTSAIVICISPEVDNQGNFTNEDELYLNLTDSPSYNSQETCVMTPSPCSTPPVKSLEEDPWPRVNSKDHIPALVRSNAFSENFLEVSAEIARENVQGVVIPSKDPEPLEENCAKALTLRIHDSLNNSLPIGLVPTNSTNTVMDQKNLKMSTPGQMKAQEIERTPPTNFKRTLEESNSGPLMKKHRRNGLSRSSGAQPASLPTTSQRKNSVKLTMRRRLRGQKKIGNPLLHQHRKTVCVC
Put plainly: Inhibition of His-tagged PPM1D (1 to 420 residues) (unknown origin) expressed in Escherichia coli BL21 (DE3) pLysS cells using Ac-VEPPLS(P)QETFSDLW-NH2 substrate.

Experiment [2] concerns NCI-H1299. Kind of experiment: Inhibition of cell proliferation of human H1299 cells overexpressing HA-PPM1D at 5 to 20 incubated for 24 hrs. It is filed as functional, cell-based.
For experiment [3], the system named is NCI-H1299. Kind of experiment: Inhibition of cell proliferation of human H1299 cells at 5 to 20 incubated for 24 hrs. It is filed as functional, cell-based.
For experiment [4], the system named is MCF7. Put plainly: Inhibition of cell proliferation of human MCF7 cells at > 20 uM incubated for 24 hrs. It is filed as functional, cell-based.
The target in experiment [5] is T2, Protein phosphatase 1A (Homo sapiens) (UniProt P35813).
T2 sequence (whole entry): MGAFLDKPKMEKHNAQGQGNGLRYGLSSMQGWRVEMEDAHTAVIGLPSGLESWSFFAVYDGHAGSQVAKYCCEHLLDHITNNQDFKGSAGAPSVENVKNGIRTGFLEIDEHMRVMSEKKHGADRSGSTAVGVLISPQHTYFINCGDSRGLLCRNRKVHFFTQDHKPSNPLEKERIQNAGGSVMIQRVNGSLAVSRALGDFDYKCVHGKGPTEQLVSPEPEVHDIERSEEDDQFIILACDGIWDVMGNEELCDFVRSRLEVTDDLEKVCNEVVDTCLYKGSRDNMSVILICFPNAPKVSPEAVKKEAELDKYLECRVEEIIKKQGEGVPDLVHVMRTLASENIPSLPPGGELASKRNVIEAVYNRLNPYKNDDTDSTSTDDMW
Kind of experiment: Inhibition of His-tagged PPM1A (unknown origin) at 2 to 10 uM using Ac-TDDE(Nle)T(P)GY(P)VAT-NH2 substrate.

The species entered for experiment [6] is Homo sapiens. Kind of experiment: Inhibition of PP1 (unknown origin) at 2 to 10 uM using Ac-WGAKAKKT(P)PKAKK-NH2 substrate.
The species entered for experiment [7] is Homo sapiens. Kind of experiment: Inhibition of PP2A (unknown origin) at 2 to 10 uM using Ac-TDDE(Nle)T(P)GY(P)VAT-NH2 substrate.
Experiment [8] concerns MCF7. Kind of experiment: Induction of cell cycle arrest in human MCF7 cells assessed as increase in cell accumulation at G2/M phase incubated for 24 hrs by propidium iodide staining based flow cytometry. The format is functional. For orientation: Flow cytometry measures light scatter and fluorescence of single cells or particles in a stream.
For experiment [9], the system named is MCF7. Put plainly: Induction of cell cycle arrest in human MCF7 cells assessed as increase in cell accumulation at subG1 phase incubated for 24 hrs by propidium iodide staining based flow cytometry. The format is functional.
The subject of experiment [10] is MCF7. Put plainly: Induction of apoptosis in human MCF7 cells incubated for 24 hrs by Annexin-V staining based flow cytometry. The format is functional, cell-based.
The test system of experiment [11] is MCF7. Put plainly: Effect on PPM1D protein expression in UV irradiated human MCF7 cells by Western blotting method. It is filed as functional, cell-based.

As a reminder, the pIC50 is −log10 of the IC50, conventionally taken in molar units. A lower pIC50 goes with a high IC50. On to `Cc1ncc(Cl)cc1NCc1ccc(C(=O)N[C@@H](CC2CCCC2)C(=O)NC2CC2)s1`, for which the negative-log IC50 (pIC50) in the experiment with MCF7 [1] is 5.02; on Protein phosphatase 1D, 7.06. Also, the inhibition result in the experiment on NCI-H1299 [2] and in the experiment on NCI-H1299 [3] was “inactive” in each case.

In turn, `CC[Si](CC)(CC)O[C@@H]1CCC[C@@H]2[C@@H]1C[C@H](O[Si](C)(C)C(C)(C)C)C[C@@]2(C)C(=O)O` had a pIC50 in the experiment on MCF7 [1] of 5.13. Besides, the inhibition entry in the experiment with MCF7 [4] and in the experiment on NCI-H1299 [2] was “Active” throughout. Besides, the inhibition entry (in experiment [5]; in the experiment listed under Homo sapiens [6]; in the experiment filed under Homo sapiens [7]; in the experiment on NCI-H1299 [3]) was “inactive” throughout. The outcome in the experiment with MCF7 [8], with MCF7 [9] and with MCF7 [10] was Active. Moreover, in the experiment on MCF7 [11], the result was inactive.

As to `CC[Si](CC)(CC)O[C@@H]1C[C@H](C)C[C@@H]2[C@@H]1C[C@H](O[Si](C)(C)C(C)(C)C)[C@@H]1[C@](C)(CO)C[C@H](O)C[C@@]21C`, the figures for the pIC50 with MCF7 [1] and on Protein phosphatase 1D were 4.57 and 7.06, respectively.

Turning to `CC[Si](CC)(CC)O[C@@H]1CCC[C@@H]2[C@@H]1C[C@H](O[Si](C)(C)C(C)(C)C)C[C@@]2(C)CO`, the pIC50 with MCF7 [1] is 4.44.
